Test results from ChEMBL document CHEMBL1152032, “Inhibition of interleukin-1 converting enzyme by N-Acyl-aspartic acid ketones” (Bioorg Med Chem Lett, 1995).

These compounds were tested against T1, Caspase-1 (Homo sapiens, UniProt P29466) (assay: Inhibition of IL-1 beta converting enzyme (ICE) in human blood monocytes).
T1 sequence (P29466 whole entry): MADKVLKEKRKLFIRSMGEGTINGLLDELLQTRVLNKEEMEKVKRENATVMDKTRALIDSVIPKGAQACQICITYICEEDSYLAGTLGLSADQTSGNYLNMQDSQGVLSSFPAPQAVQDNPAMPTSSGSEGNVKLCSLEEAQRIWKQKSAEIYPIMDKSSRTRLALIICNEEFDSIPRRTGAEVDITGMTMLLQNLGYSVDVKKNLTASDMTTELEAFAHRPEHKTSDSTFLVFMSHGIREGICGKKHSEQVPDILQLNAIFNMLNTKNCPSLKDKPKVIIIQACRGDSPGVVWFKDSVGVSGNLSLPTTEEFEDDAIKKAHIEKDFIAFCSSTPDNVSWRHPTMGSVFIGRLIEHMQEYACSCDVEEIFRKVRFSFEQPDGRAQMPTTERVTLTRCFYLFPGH
Type: cell-based

Ki [µM] | Structure (SMILES)
24 | O=C(O)C[C@H](NC(=O)OCc1ccccc1)C(=O)COCCCc1ccccc1
> 100 | C=CCOC(=O)N[C@@H](CC(=O)O)C(=O)CCCCc1ccccc1
> 100 | C=CCOC(=O)N[C@@H](CC(=O)O)C(=O)CNCc1ccccc1
20 | C=CCOC(=O)N[C@@H](CC(=O)O)C(=O)COC(=O)CCc1ccccc1
> 100 | C=CCOC(=O)N[C@@H](CC(=O)O)C(=O)CNC(c1ccccc1)c1ccccc1
3.5 | C=CCOC(=O)N[C@@H](CC(=O)O)C(=O)COC(=O)CCC1CCCCC1
74 | C=CCOC(=O)N[C@@H](CC(=O)O)C(=O)COC(=O)NCc1ccccc1
90 | C=CCOC(=O)N[C@@H](CC(=O)O)C(=O)COC(=O)/C=C/c1ccccc1
> 100 | C=CCOC(=O)N[C@@H](CC(=O)O)C(=O)CN(C)CCc1ccccc1
70 | C=CCOC(=O)N[C@@H](CC(=O)O)C(=O)CNC(Cc1ccccc1)c1ccccc1 (stereo partly specified)
67 | C=CCOC(=O)N[C@@H](CC(=O)O)C(=O)CNCCCc1ccccc1
42 | CC(=O)N[C@@H](Cc1ccc(O)cc1)C(=O)N[C@H](C(=O)N[C@@H](C)C(=O)N[C@@H](CC(=O)O)C(=O)CCCCc1ccccc1)C(C)C
68 | C=CCOC(=O)N[C@@H](CC(=O)O)C(=O)CN(CCc1ccccc1)Cc1ccccc1
4.4 | C=CCOC(=O)N[C@@H](CC(=O)O)C(=O)CNCCc1ccccc1
27 | C=CCOC(=O)N[C@@H](CC(=O)O)C(=O)CSCCCc1ccccc1
23 | C=CCOC(=O)N[C@@H](CC(=O)O)C(=O)COC(=O)CCOc1ccccc1
